Test [1] relates to Klebsiella pneumoniae K97/09. Briefly: Checkerboard synergy assay (FIC index). As to conditions: K. pneumoniae K97/09. It counts as cell-based. How it is done:
In vitro activity and synergy. Minimal inhibitory concentration (MIC) assays were performed using sterile 96-well polypropylene plates in a final volume of […]. Briefly, 50 μL of midlogarithmic phase bacterial cultures were diluted to 5×10^5 CFU/mL in Mueller-Hinton broth (MHB) and then added to 50 μL of the serially diluted antibiotic. The highest A3-APO and other test compound concentration evaluated was 256 mg/L. Cultures were incubated at 37° C. for 16-20 h without shaking. MICs were identified as the lowest antimicrobial concentrations at which turbidity was not observed. Antimicrobial synergy was determined by evaluating the fractional inhibitory concentration (FIC) index and was characterized by a conventional checkerboard assay (Fernandez-Cuenca et al., 2003). Bacteria grown to mid-logarithmic phase in MHB were pre-incubated with serially diluted concentrations of peptides such as A3-APO, and the antimicrobial controls, imipenem, colistin or meropenem.
The sum of the FICs (Σ FIC) was calculated with the equation Σ FIC=FICA+FICB=(CA/MICA)+(CB/MICB), where MICA and MICB are the MICs of antimicrobial A and B alone, respectively, and CA and CB are the concentrations of the drugs when combined, respectively. Synergy was defined as a Σ FICs≤0.5 and additive activity was defined as a Σ FICs>0.5≤1.0.

Test [2] addresses bacterial DnaK (Escherichia coli, UniProt P0A6Y8). As to conditions: Cassone et al., 2008; cited from earlier work.
Test [3] concerns Acinetobacter baumannii BAA-1605. The class given is cell-based. As to conditions: A. baumannii BAA-1605.
Description: In vitro activity and synergy. Minimal inhibitory concentration (MIC) assays were performed using sterile 96-well polypropylene plates in a final volume of 100 mL. Briefly, 50 μL of midlogarithmic phase bacterial cultures were diluted to 5×10^5 CFU/mL in Mueller-Hinton broth (MHB) and then added to 50 μL of the serially diluted antibiotic. […] MICs were identified as the lowest antimicrobial concentrations at which turbidity was not observed. Antimicrobial synergy was determined by evaluating the fractional inhibitory concentration (FIC) index and was characterized by a conventional checkerboard assay (Fernandez-Cuenca et al., 2003).
For test [4], the system named is panel of Gram-negative nosocomial bacteria (E. coli, K. pneumoniae, A. baumannii, P. aeruginosa). Briefly: Antibacterial assay (MIC), ranges over the panel. It counts as cell-based. Particulars: against E. coli, A. baumannii and P. aeruginosa. As to the method: (§1) Antibacterial assay. Antibacterial assays are undertaken to determine the minimal inhibitory concentrations (MIC) as described previouslyl^6.
(§2) Antibacterial activity. Each C-terminal modified PrAMP DTM-linked tetramer is assayed against nosocomial Gram-negative bacteria, including E. coli ATCC 29222, K. pneumoniae ATCC 13883, A. baumannii ATCC 19606 and P. aeruginosa ATCC 47085.

Test [5] concerns P. aeruginosa ATCC 47085. Briefly: Antibacterial assay (MIC). The class given is cell-based. Particulars: P. aeruginosa ATCC 47085, MHB, 37° C. How it is done:
as §1, §2

The test system of test [6] is K. pneumoniae ATCC 13883. Briefly: Antibacterial assay (MIC). The class given is cell-based. Particulars: K. pneumoniae ATCC 13883, MHB, 37° C. As to the method:
as §1, §2

The test system of test [7] is A. baumannii ATCC 19606. Description: Antibacterial assay (MIC). Particulars: A. baumannii ATCC 19606, MHB, 37° C. The class given is cell-based. As to the method:
as §1, §2

Test [8] relates to E. coli ATCC 29222. Description: Antibacterial assay (MIC). It counts as cell-based. As to conditions: E. coli ATCC 29222, MHB, 37° C. As to the method:
as §1, §2

The subject of test [9] is E. coli. Description: Synergy results for co-administration of A3-APO (ARV-1501). The class given is cell-based. Particulars: antibiotic co-administered with A3-APO (ARV-1501).
Test [10] has as its system H. influenzae. The test is described as above. As to conditions: antibiotic co-administered with A3-APO (ARV-1501). It counts as cell-based.
Test [11] concerns S. typhimurium. The description is as above. As to conditions: antibiotic co-administered with A3-APO (ARV-1501). It counts as cell-based.
Test [12] concerns K. pneumoniae. The description is as above. It counts as cell-based. As to conditions: antibiotic co-administered with A3-APO (ARV-1501). How it is done:
Restoring antibiotic sensitivity to resistant bacteria. A colistin-resistant, carbapenem-resistant strain of K. pneumonia (K97/09) from a clinical isolate was used to test the effect of A3-APO treatment on antibiotic resistance. An in vitro assay measuring visible bacterial growth in the presence of A3-APO and imipenem or colistin was performed.
Synergy Results for Co-administration of A3-APO (ARV-1501)

The test system of test [13] is multidrug-resistant Klebsiella pneumoniae K97/09. Description: microbe, parasite or virus in culture.
Test [14] relates to multidrug-resistant Acinetobacter baumannii BAA-1605. Description: microbe, parasite or virus in culture. As to conditions: BAA1605.
Test [15] has as its system K. pneumoniae K97/09. Briefly: Bacteremia Synergy Assay 1 (mouse systemic infection). The class given is in vivo. As to conditions: 30 mg/kg sc 3 times (Group 2). As to the method:
In vivo Studies. Animals. Assays 1-2. NMRI (Naval Medical Research Institute) BR or CD-1 mice (Toxi-Coop Zrt, Budapest, Hungary) were housed in plastic type 2 cages, 3-5 mice per cage, on softwood granules as bedding. The room was kept between 21° C. and 25° C. with 12 h light:12 h dark cycles. The animals had free access to tap water and pelleted rodent food. Upon completion of the experiments, surviving mice were euthanized by diethyl ether inhalation. Animals were maintained and handled in accordance with the recommendations of the Guidelines for the Care and Use of Laboratory Animals, and the protocols were approved by the Animal Care Committee of Semmelweis University. The planned 15 treatment groups of mice were divided roughly equally into two assays with 8 and 7 treatment groups and untreated controls in each assay for safe and humane handling of large numbers of mice.
Infection models. NMRI mice weighing approximately 20 g (4 weeks old) were infected by intraperitoneal (ip) injection of 4×10^8 CFU/g K. pneumoniae K97/09. Mice were randomly allocated to 8 and […] groups (5 mice per group).
Bacteremia Synergy Assay 1.
Group 1: phosphate buffered saline (PBS) subcutaneously (sc) 1 h after infection. Group 2: imipenem 30 mg/kg sc at 2, 14 and 26 h after infection. […]
Survival was recorded hourly 24-36 h after infection. […]

Converted amounts (≈) assume the structure as drawn. *1 amine or outer side, *2 acyl side, *3 side chain or, on linkers, in order; H or OH if unused. Bridges are numbered along the chain shown (N, C = ends). Roman numbers before positions name the chains, in order. [ ]: non-standard residue; d: D form. The star is where a group is joined. Maleimide(3,4-diyl) = O=C1NC(=O)C([*:2])=C1[*:1]; Ac6c = NC1(C(=O)O)CCCCC1; Dab = NCC[C@H](N)C(=O)O; NHNH2 = NN*

Chain of bacterial DnaK (P0A6Y8 whole entry): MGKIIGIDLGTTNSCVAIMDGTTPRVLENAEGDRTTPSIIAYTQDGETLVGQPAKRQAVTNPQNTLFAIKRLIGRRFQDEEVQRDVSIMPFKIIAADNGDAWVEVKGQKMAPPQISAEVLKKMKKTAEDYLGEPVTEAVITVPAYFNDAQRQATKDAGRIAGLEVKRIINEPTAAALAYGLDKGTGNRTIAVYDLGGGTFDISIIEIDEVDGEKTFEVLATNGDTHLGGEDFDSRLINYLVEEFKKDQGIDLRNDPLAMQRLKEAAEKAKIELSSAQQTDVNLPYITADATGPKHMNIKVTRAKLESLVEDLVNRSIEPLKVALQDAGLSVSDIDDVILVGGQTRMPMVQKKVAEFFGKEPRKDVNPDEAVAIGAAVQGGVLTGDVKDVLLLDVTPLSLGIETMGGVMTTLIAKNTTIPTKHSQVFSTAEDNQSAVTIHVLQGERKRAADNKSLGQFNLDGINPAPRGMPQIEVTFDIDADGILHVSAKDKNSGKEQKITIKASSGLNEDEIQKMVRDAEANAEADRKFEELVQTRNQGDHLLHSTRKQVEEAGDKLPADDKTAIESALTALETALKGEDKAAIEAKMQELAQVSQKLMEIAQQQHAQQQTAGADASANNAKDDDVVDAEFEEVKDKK

Regarding “I: H-[Ac6c]RPDKPRPYLGRPRPPRPVR[Dab]-NH2 / II: H-[Ac6c]RPDKPRPYLGRPRPPRPVR (amide I:21-II:C) [Gly11, (H-Chex-Arg-Pro-Asp-Lys-Pro-Arg-Pro-Tyr-Leu-Gly-Arg-Pro-Arg-Pro-Pro-Arg-Pro-Val-Arg)2-Dab-NH2]”, the “improvement in the MIC values when added together with imipenem or colistin” value in test [1] and in test [3] was “failed to exert any improvement” in each case. Besides, the DnaK binding result in test [2] is given as “fails to bind bacterial DnaK”.

For the molecule “I: H-[Ac6c]RPDKPRPYLPRPRPPRPVR[Dab]C-NHNH2 / II: H-[Ac6c]RPDKPRPYLPRPRPPRPVR[Dab]C-NHNH2 / III: H-[Ac6c]RPDKPRPYLPRPRPPRPVR / IV: H-[Ac6c]RPDKPRPYLPRPRPPRPVR (amide I:21-III:C, II:21-IV:C; linker I:22-II:22 via Maleimide(3,4-diyl)) [tetramer-DTM-NHNH2]”, the “MIC (range over the bacteria)” value in test [4] lay within 0.49 to 2.33 µM. For the same molecule, the “Antibacterial activity, MIC” value in [5] amounted to 1.14 ± 0.03 µM; in [6], 0.49 ± 0.01 µM; in test [7], 2.33 ± 0.48 µM; in test [8] it was 0.93 ± 0.02 µM.

Consider `CC1(C)S[C@@H]2[C@H](NC(=O)[C@H](N)c3ccc(O)cc3)C(=O)N2[C@H]1C(=O)O` [amoxicillin], for which the Outcome entry in [9] is on record as “reversal of TEM-1 related”; in test [10] it was “MIC lowered with priming”.

For `Cc1cc(NS(=O)(=O)c2ccc(N)cc2)no1` [sulfamethoxazole], the Outcome entry in test [11] is recorded as “MIC lowered with priming”.

As to `O=C(N[C@H](CO)[C@H](O)c1ccc([N+](=O)[O-])cc1)C(Cl)Cl` [chloramphenicol], the Outcome result in [9], in test [12] and in [10] was “MIC lowered with priming” each time.

With `C[C@@H](O)[C@H]1C(=O)N2C(C(=O)O)=C(SCCN=CN)C[C@H]12` [imipenem], the MIC in test [13] is greater than 256 µg/mL; in test [14] it was 64 µg/mL (≈ 214 µM). Moreover, the “survival improvement at 36 h over untreated controls” value in test [15] was found to be 40%.

The record behind these values is patent US20200323950A1, “ANTIBACTERIAL PEPTIDES AND COMBINATIONS FOR CO-THERAPY” (priority 2017, published 2020).
